Laboratory results published in PubChem BioAssay (NCI).
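Cultured in 96-well plates, cells were exposed to test compound for 48 hours across five concentrations. GI50 marks 50% less growth. TGI marks complete inhibition of growth.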

Legend:
Assay in all cases: NCI-60 cell line screen, 48 h
NCI/ADR-RES ovarian = system: NCI/ADR-RES ovarian
SW-620 colon = system: SW-620 colon
NCI-H23 lung = system: NCI-H23 lung
OVCAR-5 ovarian = system: OVCAR-5 ovarian
SK-MEL-28 melanoma = system: SK-MEL-28 melanoma
IGROV1 ovarian = system: IGROV1 ovarian
SF-295 CNS = system: SF-295 CNS
UO-31 renal = system: UO-31 renal
TK-10 renal = system: TK-10 renal
MOLT-4 leukemia = system: MOLT-4 leukemia
U251 CNS = system: U251 CNS
NCI-H522 lung = system: NCI-H522 lung
CAKI-1 renal = system: CAKI-1 renal
SNB-75 CNS = system: SNB-75 CNS
UACC-257 melanoma = system: UACC-257 melanoma
UACC-62 melanoma = system: UACC-62 melanoma
HCT-15 colon = system: HCT-15 colon
HS 578T breast = system: HS 578T breast
OVCAR-8 ovarian = system: OVCAR-8 ovarian
SR leukemia = system: SR leukemia
NCI-H460 lung = system: NCI-H460 lung
SF-539 CNS = system: SF-539 CNS
A498 renal = system: A498 renal
K-562 leukemia = system: K-562 leukemia
DU-145 prostate = system: DU-145 prostate
KM12 colon = system: KM12 colon
M14 melanoma = system: M14 melanoma
HOP-92 NSCLC = system: HOP-92 NSCLC
MALME-3M melanoma = system: MALME-3M melanoma
SN12C renal = system: SN12C renal
CCRF-CEM leukemia = system: CCRF-CEM leukemia
HT29 colon = system: HT29 colon
HCC-2998 colon = system: HCC-2998 colon
BT-549 breast = system: BT-549 breast
SNB-19 CNS = system: SNB-19 CNS
COLO 205 colon = system: COLO 205 colon
HOP-62 NSCLC = system: HOP-62 NSCLC
A549 NSCLC = system: A549 NSCLC
RPMI-8226 leukemia = system: RPMI-8226 leukemia
SF-268 CNS = system: SF-268 CNS
SK-MEL-5 melanoma = system: SK-MEL-5 melanoma
OVCAR-4 ovarian = system: OVCAR-4 ovarian
786-0 renal = system: 786-0 renal
MDA-MB-231 breast = system: MDA-MB-231 breast
RXF 393 renal = system: RXF 393 renal
LOX IMVI melanoma = system: LOX IMVI melanoma
HCT-116 colon = system: HCT-116 colon
OVCAR-3 ovarian = system: OVCAR-3 ovarian
HL-60(TB) leukemia = system: HL-60(TB) leukemia
SK-MEL-2 melanoma = system: SK-MEL-2 melanoma
EKVX NSCLC = system: EKVX NSCLC
PC-3 prostate = system: PC-3 prostate
MDA-MB-435 = system: MDA-MB-435

O=C(Nc1ccc(F)cc1F)c1cc(F)ccc1O
GI50 (NCI/ADR-RES ovarian): 2.81 µM | TGI (NCI/ADR-RES ovarian): 9.78 µM | GI50 (SW-620 colon): 3.15 µM | TGI (SW-620 colon): > 100 µM | GI50 (NCI-H23 lung): 2.07 µM | TGI (NCI-H23 lung): 6.62 µM | GI50 (OVCAR-5 ovarian): 3.18 µM | TGI (OVCAR-5 ovarian): > 100 µM | GI50 (SK-MEL-28 melanoma): 2.77 µM | TGI (SK-MEL-28 melanoma): 13.2 µM | GI50 (IGROV1 ovarian): 2.58 µM | TGI (IGROV1 ovarian): > 100 µM | GI50 (SF-295 CNS): 1.99 µM | TGI (SF-295 CNS): 4.36 µM | GI50 (UO-31 renal): 1.96 µM | TGI (UO-31 renal): 7.16 µM | GI50 (TK-10 renal): 4.48 µM | TGI (TK-10 renal): > 100 µM | GI50 (MOLT-4 leukemia): 2.63 µM | TGI (MOLT-4 leukemia): 6.88 µM | GI50 (U251 CNS): 2.95 µM | TGI (U251 CNS): > 100 µM | GI50 (NCI-H522 lung): 2.59 µM | TGI (NCI-H522 lung): > 100 µM | GI50 (CAKI-1 renal): 2.37 µM | TGI (CAKI-1 renal): 11.6 µM | GI50 (SNB-75 CNS): 3.19 µM | TGI (SNB-75 CNS): 30.7 µM | GI50 (UACC-257 melanoma): 2.26 µM | TGI (UACC-257 melanoma): 7.32 µM | GI50 (UACC-62 melanoma): 1.38 µM | TGI (UACC-62 melanoma): 4.12 µM | GI50 (HCT-15 colon): 2.92 µM | TGI (HCT-15 colon): > 100 µM | GI50 (HS 578T breast): 2.37 µM | TGI (HS 578T breast): 9.14 µM | GI50 (OVCAR-8 ovarian): 3.44 µM | TGI (OVCAR-8 ovarian): > 100 µM | GI50 (SR leukemia): 3.95 µM | TGI (SR leukemia): > 100 µM | GI50 (NCI-H460 lung): 2.94 µM | TGI (NCI-H460 lung): > 100 µM | GI50 (SF-539 CNS): 2.85 µM | TGI (SF-539 CNS): 12.3 µM | GI50 (A498 renal): 1.84 µM | TGI (A498 renal): 5.53 µM | GI50 (K-562 leukemia): 2.41 µM | TGI (K-562 leukemia): > 100 µM | GI50 (DU-145 prostate): 3.62 µM | TGI (DU-145 prostate): > 100 µM | GI50 (KM12 colon): 2.76 µM | TGI (KM12 colon): 10.6 µM | GI50 (M14 melanoma): 2.82 µM | TGI (M14 melanoma): 13.2 µM | GI50 (HOP-92 NSCLC): 0.569 µM | TGI (HOP-92 NSCLC): 3.59 µM | GI50 (MALME-3M melanoma): 2.04 µM | TGI (MALME-3M melanoma): 7.66 µM | GI50 (SN12C renal): 2.2 µM | TGI (SN12C renal): 8.02 µM | GI50 (CCRF-CEM leukemia): 3.35 µM | TGI (CCRF-CEM leukemia): > 100 µM | GI50 (HT29 colon): 3.37 µM | TGI (HT29 colon): > 100 µM | GI50 (HCC-2998 colon): 3.12 µM | TGI (HCC-2998 colon): 13.1 µM | GI50 (BT-549 breast): 2.43 µM | TGI (BT-549 breast): 6.75 µM | GI50 (SNB-19 CNS): 3.17 µM | TGI (SNB-19 CNS): > 100 µM | GI50 (COLO 205 colon): 2.08 µM | TGI (COLO 205 colon): 5.06 µM | GI50 (HOP-62 NSCLC): 2.9 µM | TGI (HOP-62 NSCLC): 47.2 µM | GI50 (A549 NSCLC): 3.04 µM | TGI (A549 NSCLC): > 100 µM | GI50 (RPMI-8226 leukemia): 1.4 µM | TGI (RPMI-8226 leukemia): 5.01 µM | GI50 (SF-268 CNS): 3.34 µM | TGI (SF-268 CNS): 67.1 µM | GI50 (SK-MEL-5 melanoma): 1.27 µM | TGI (SK-MEL-5 melanoma): 2.81 µM | GI50 (OVCAR-4 ovarian): 2.59 µM | TGI (OVCAR-4 ovarian): > 100 µM | GI50 (786-0 renal): 3.19 µM | TGI (786-0 renal): 16.2 µM | GI50 (MDA-MB-231 breast): 1.9 µM | TGI (MDA-MB-231 breast): 4.9 µM | GI50 (RXF 393 renal): 2.49 µM | TGI (RXF 393 renal): 8.33 µM | GI50 (LOX IMVI melanoma): 3.39 µM | TGI (LOX IMVI melanoma): 12.1 µM | GI50 (HCT-116 colon): 2.91 µM | TGI (HCT-116 colon): 11.1 µM | GI50 (OVCAR-3 ovarian): 2.77 µM | TGI (OVCAR-3 ovarian): 21.9 µM | GI50 (HL-60(TB) leukemia): 2.33 µM | TGI (HL-60(TB) leukemia): 5.38 µM | GI50 (SK-MEL-2 melanoma): 2.48 µM | TGI (SK-MEL-2 melanoma): 6.54 µM | GI50 (EKVX NSCLC): 2.23 µM | TGI (EKVX NSCLC): 10.5 µM | GI50 (PC-3 prostate): 2.61 µM | TGI (PC-3 prostate): 9.53 µM | GI50 (MDA-MB-435): 2.86 µM | TGI (MDA-MB-435): 34.2 µM
